Patent US5246932A, “Heterocyclic compounds” (Imperial Chemical Industries PLC, priority 1991, dated 1993)

How the values were obtained:
[1] = molecular target: adenosine receptor known as A2; experiment: Guinea-pig Aortic Constriction Test; format: biochemical; conditions: antagonism of adenosine relaxation of phenylephrine-constricted guinea-pig aortic ring
Text: (b) Guinea-pig Aortic Constriction Test
This test has been described by Collis et al. (British J. Pharmacology, 1989, 97, 1274-1278) and involves the assessment of the ability of a test compound to antagonise the attenuatory effect of adenosine on phenylephrine induced constriction of a guinea-pig aortic ring preparation, an effect mediated via the adenosine receptor known as A2.
The aortic ring preparation is obtained as follows:- Sections (3-5 mm) of guinea pig thoracic aorta (from Dunkin Hartley strain, 250-400 g males) are mounted in organ baths containing oxygenated Krebs solution (95% O2 : 5% CO2) at 37° C. [The nucleoside transport inhibitor, dipyridamole (10 μM) is present in the Krebs solution]. The isometric tension development is recorded and the tissue placed under a resting tension of 1 g and allowed to equilibrate for 1 hour. […] Adenosine is next added cumulatively (10^-7 M to 10^-3 M) and the evoked relaxation is measured. […]
Test compounds are assessed by plotting the percentage relaxation observed against the logarithm of the adenosine concentration, competitive adenosine antagonism producing a parallel shift in the standard adenosine concentration/relaxation (dose response) curve. […] The pA2 value, which is an estimate of the concentration of antagonist to give a dose ratio of 2, may also be calculated using a standard computation technique.

[2] = test system: vasodilation response during twitch contraction of skeletal muscle; experiment: Anaesthetised cat exercise hyperaemia test; format: in vivo; conditions: 10 mg.kg^-1
Protocol: f) Anaesthetised cat exercise hyperaemia test
This test involves assessment of the effect of a test compound to antagonise the vasodilation response which occurs during twitch contraction of skeletal muscle. The vasodilation is mediated partly by the release of endogenous adenosine from the contracting skeletal muscle.
Cats (2.4-3.6 kg) are anaesthetised with sodium pentobarbitone (50 mg.kg^-1 ip). The following blood vessels are catheterized: left jugular vein (for infusion of anaesthetic, at approximately […] as a 6 mg.ml^-1 solution in isotonic saline), right external jugular vein (for administration of drugs and test compounds), right common carotid artery (for measurement of systemic arterial blood pressure and pulse rate) and right brachial artery (for withdrawal of blood).
Blood flow to the left hind limb is measured with an electromagnetic flow probe around the left external iliac artery. The whole of the left hind limb is made to contract at 3 Hz for 20 minutes duration by stimulating the sciatic and femoral nerves. Active tension produced by the extensor digitorum longus and peroneous longus muscles is measured isometrically with a force transducer. Exercise is repeated twice within the same animal, in either the absence or presence of the test compound. Test compounds are assessed for their ability to reduce the vasodilatation during skeletal muscle contraction.

A2 Adenosine receptor = molecular target: T1, A2 Adenosine receptor (Rattus norvegicus, UniProt P30543); experiment: A2 Adenosine receptor affinity test ([3H]-NECA displacement, PC12 membranes); format: binding; conditions: rat PC12 cell membranes, 30° C., 90 minutes
T1 construct: membrane preparations derived from the rat phaeochromocytoma cell line PC 12; host or cells: PC 12 (rat phaeochromocytoma) membranes
T1 sequence (P30543 whole entry): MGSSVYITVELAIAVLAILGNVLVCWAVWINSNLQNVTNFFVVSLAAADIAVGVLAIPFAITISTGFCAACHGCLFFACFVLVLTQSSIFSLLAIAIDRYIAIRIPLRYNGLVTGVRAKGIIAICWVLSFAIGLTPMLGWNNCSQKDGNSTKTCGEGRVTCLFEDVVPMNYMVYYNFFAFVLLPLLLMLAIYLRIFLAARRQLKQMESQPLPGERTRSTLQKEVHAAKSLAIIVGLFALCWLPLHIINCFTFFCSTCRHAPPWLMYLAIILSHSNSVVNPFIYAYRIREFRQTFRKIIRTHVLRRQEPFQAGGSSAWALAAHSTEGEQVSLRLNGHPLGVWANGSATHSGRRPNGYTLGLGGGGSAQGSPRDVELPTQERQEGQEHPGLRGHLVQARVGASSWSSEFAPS
Protocol: The separated cells are then suspended in hypotonic solution (distilled water), allowed to stand on ice for 30 minutes and are then carefully homogenized using a standard high-speed homogeniser with periodic ice-cooling to obtain a fine suspension. […] The mixture is then incubated at 37° C. After 20 minutes, the reaction is terminated by dilution with ice-cold buffer and transfer onto ice. The material obtained containing the cell membranes is recovered by centrifugation and washed by resuspension in buffer and recentrifugation. The pellet produced is then resuspended in ice-cold buffer using a hand-driven homogenizer. The resultant membrane suspension is frozen and stored under liquid nitrogen until required.
After incubation, the samples are rapidly filtered over glass-fibre mats and the filter mats are washed to remove non-receptor-bound radioligand. Receptor-bound radioligand entrapped on the filter mats is then determined by liquid scintillation counting. Filtration and washing are carried out using a conventional vacuum filtration cell harvester. The specific binding (defined as the difference between the total binding and the non-specific binding) in the presence of the particular test compound is determined and compared with the control value.

[3] = molecular target: T2, adenosine receptor known as A1 (Cavia porcellus, UniProt P47745); experiment: Guinea-pig Atrial Bradycardic Test; format: biochemical; conditions: antagonism of 2-chloroadenosine bradycardia in beating guinea-pig atrial pair; read-out: pA2 (converted)
T2 construct: Atrial pairs are obtained from guinea-pigs (Dunkin Hartley strain); from tissue; host or cells: guinea-pig spontaneously beating atrial pairs (Dunkin Hartley)
T2 sequence (P47745 1-326): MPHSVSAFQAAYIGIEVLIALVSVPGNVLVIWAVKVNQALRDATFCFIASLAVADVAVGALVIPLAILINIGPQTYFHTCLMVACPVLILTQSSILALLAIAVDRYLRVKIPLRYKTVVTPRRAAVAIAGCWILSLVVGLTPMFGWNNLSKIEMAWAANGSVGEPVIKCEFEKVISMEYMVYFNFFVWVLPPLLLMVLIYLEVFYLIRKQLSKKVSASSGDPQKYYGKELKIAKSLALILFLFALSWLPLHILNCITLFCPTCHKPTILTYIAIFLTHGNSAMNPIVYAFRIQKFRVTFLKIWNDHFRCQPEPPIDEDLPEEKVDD
Protocol: (c) Guinea-pig Atrial Bradycardic Test
The atrial pair preparation may be obtained as follows: Atrial pairs are obtained from guinea-pigs (Dunkin Hartley strain, 250-400 g males) and mounted in organ baths containing oxygenated Krebs buffer solution (95% O2; 5% CO2) at 37° C. The spontaneously beating atria are then placed under a resting tension of 1 g and allowed to equilibrate for 50 minutes with continuous overflow. Overflow is then stopped and adenosine deaminase (1 Unit/ml) added to prevent the accumulation of endogenously produced adenosine. After equilibration for 15 minutes, a cumulative dose response curve to the adenosine mimetic, 2-chloroadenosine(10^-8 M to 10^-4 M) is administered to produce a maximal slowing of atrial rate. After washout during 30 minutes, adenosine deaminase is readministered to the bath which is allowed to equilibrate for 15 minutes. A 10^-5 M solution of the test compound in DMSO is then added to the bath which is left to incubate for 30 minutes. Any effect on the beating rate due to the test compound is noted before the dose response curve to 2-chloroadenosine is repeated. Compounds which are adenosine antagonists attenuate the 2-chloroadenosine response.
Test compounds are assessed by comparing dose response curves to 2-chloroadenosine alone with those obtained in the presence of the compound. […]

SMILES | pA2 [1] | inhibition of vasodilatation during skeletal muscle contraction [2] | IC50 (A2 Adenosine receptor) [nM] | Kb [3] [nM]
Cn1c(=O)c2[nH]cnc2n(C)c1=O [1,3-dimethylxanthine] | about 5 | significant inhibition | – | –
Nc1nc(NCCc2ccc(Oc3nc(N)n4nc(-c5ccco5)nc4n3)cc2)nc2nc(-c3ccco3)nn12 [Example 1, 7-amino-5-[4-(2-[7-amino-2-(2-furyl)-[1,2,4]triazolo[1,5-a][1,3,5]triazin-5-ylamino]ethyl)phenoxy]-2-(2-furyl)[1,2,4]triazolo[1,5-a][1,3,5]triazine] | – | – | ~0.794 | 1000
